target: T1, ΔF508-CFTR (Homo sapiens, UniProt P13569, DEL508-508); assay: hBE equivalent current (Ieq) assay: AUC of equivalent chloride current after forskolin/VX-770 in primary lung epithelial cells homozygous for ΔF508; type: cell-based; conditions: relative to CFTR amplifier (Compound A)+VX-809 (3 uM), compound at 10 uM and Compound A at 3 uM, 24 h treatment
T1 construct: Primary lung epithelial cells homozygous for the Cystic Fibrosis-causing ΔF508 mutation were differentiated for a minimum of 4 weeks; endogenous in cells; host or cells: primary lung epithelial cells (hBE) homozygous for ΔF508, differentiated at an air-liquid interface
Outline: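 ΔF508/ΔF508 primary human bronchial epithelia, differentiated ≥4 weeks at air-liquid interface, treated basolaterally with compound for 24 h at 37 °C. Transepithelial voltage and conductance by 24-channel current clamp at 36 °C: benzamil, then forskolin plus VX-770 for 27 min, then bumetanide; AUC of equivalent chloride current over vehicle.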

T1 sequence (P13569 with tags, fused parts or gaps DEL508-508): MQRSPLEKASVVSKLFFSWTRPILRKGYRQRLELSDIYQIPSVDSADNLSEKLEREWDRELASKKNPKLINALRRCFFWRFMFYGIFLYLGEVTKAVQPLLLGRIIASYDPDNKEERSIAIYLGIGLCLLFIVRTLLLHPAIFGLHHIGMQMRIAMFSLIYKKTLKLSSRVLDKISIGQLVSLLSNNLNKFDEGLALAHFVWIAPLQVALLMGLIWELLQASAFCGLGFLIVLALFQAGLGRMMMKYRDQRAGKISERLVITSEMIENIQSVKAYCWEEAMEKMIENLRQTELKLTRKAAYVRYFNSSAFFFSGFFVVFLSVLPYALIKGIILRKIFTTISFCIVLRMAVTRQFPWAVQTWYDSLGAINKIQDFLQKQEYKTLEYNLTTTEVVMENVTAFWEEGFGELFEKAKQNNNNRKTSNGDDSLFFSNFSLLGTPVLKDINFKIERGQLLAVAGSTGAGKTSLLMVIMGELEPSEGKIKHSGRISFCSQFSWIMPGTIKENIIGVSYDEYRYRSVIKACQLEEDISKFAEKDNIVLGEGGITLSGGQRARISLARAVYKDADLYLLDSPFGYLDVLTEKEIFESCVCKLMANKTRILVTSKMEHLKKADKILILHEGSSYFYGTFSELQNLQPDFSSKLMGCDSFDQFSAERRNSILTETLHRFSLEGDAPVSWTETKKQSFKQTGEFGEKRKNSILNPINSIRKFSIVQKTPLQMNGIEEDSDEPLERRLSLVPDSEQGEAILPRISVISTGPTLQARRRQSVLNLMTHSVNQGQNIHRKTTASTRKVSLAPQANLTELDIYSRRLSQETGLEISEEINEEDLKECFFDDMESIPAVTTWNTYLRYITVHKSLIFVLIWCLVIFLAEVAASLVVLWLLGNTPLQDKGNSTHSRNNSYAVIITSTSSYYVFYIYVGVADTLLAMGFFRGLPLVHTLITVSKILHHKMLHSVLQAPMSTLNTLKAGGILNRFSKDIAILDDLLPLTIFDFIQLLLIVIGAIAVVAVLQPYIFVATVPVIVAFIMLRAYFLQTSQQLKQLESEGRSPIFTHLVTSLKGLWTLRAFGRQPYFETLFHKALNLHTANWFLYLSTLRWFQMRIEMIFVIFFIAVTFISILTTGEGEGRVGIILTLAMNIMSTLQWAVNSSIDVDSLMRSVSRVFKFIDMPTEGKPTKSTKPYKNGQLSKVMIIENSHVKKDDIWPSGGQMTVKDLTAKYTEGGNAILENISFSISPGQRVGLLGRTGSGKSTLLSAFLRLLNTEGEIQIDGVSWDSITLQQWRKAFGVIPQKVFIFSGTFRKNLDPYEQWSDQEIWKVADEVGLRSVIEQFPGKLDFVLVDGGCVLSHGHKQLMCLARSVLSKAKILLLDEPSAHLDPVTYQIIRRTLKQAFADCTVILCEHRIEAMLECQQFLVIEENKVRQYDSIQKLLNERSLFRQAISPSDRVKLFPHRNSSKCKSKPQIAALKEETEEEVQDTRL

SMILES	Activity
CCc1ccc(O[C@H]2CCC[C@@H](C)C2)c2c(C(=O)O)cc(-c3csc4ccccc34)nc12 [Compound 181, 2-(1-Benzothiophen-3-yl)-8-ethyl-5-[[(1S,3R)-3-methylcyclohexyl]oxy]quinoline-4-carboxylic Acid]	++ (activity>50% of CFTR amplifier+VX-809 (3 uM) with compound at 10 uM and Compound A at 3 uM)
CCc1ccc(O[C@@H]2CCC[C@H](C)C2)c2c(C(=O)O)cc(-c3csc4ccccc34)nc12 [Compound 182, 2-(Benzo[b]thiophen-3-yl)-8-ethyl-5-(((1R,3S)-3-methylcyclohexyl)oxy)quinoline-4-carboxylic Acid]	++ (activity>50% of CFTR amplifier+VX-809 (3 uM) with compound at 10 uM and Compound A at 3 uM)
CCc1ccc(O[C@@H]2CCC[C@@H](C)C2)c2c(C(=O)O)cc(-c3csc4ccccc34)nc12 [Compound 184, 2-(Benzo[b]thiophen-3-yl)-8-ethyl-5-(((1R,3R)-3-methylcyclohexyl)oxy)quinoline-4-carboxylic Acid]	++ (activity>50% of CFTR amplifier+VX-809 (3 uM) with compound at 10 uM and Compound A at 3 uM)
CCc1ccc(OCc2cccc(C)c2)c2c(C(=O)O)cc(-c3csc4ccccc34)nc12 [Compound 188]	++ (activity>50% of CFTR amplifier+VX-809 (3 uM) with compound at 10 uM and Compound A at 3 uM)
CCc1ccc(OCc2ccc(C)cc2)c2c(C(=O)O)cc(-c3csc4ccccc34)nc12 [Compound 189]	++ (activity>50% of CFTR amplifier+VX-809 (3 uM) with compound at 10 uM and Compound A at 3 uM)
CCc1ccc(OCc2ccc(-c3cnccn3)cc2)c2c(C(=O)O)cc(-c3csc4ccccc34)nc12 [Compound 192, 2-(1-Benzothiophen-3-yl)-8-ethyl-5-[[4-(pyrazin-2-yl)phenyl]methoxy]quinoline-4-carboxylic acid]	++ (activity>50% of CFTR amplifier+VX-809 (3 uM) with compound at 10 uM and Compound A at 3 uM)
CCc1ccc(OCc2cccc(-c3cccnc3)c2)c2c(C(=O)O)cc(-c3csc4ccccc34)nc12 [Compound 194]	+ (activity<50% of an CFTR amplifier (Compound A)+VX-809 (3 uM) with compound at 10 uM and Compound A at 3 uM)
CCc1ccc(OCc2ccc(-c3cccnc3)cc2)c2c(C(=O)O)cc(-c3csc4ccccc34)nc12 [Compound 195]	++ (activity>50% of CFTR amplifier+VX-809 (3 uM) with compound at 10 uM and Compound A at 3 uM)
Cc1c(-c2cc(C(=O)O)c3c(O[C@H]4CC[C@@H](c5ncco5)CC4)ccc(C)c3n2)oc2ccccc12 [Compound 196]	++ (activity>50% of CFTR amplifier+VX-809 (3 uM) with compound at 10 uM and Compound A at 3 uM)
Cc1c(-c2cc(C(=O)O)c3c(O[C@H]4CC[C@H](c5ncco5)CC4)ccc(C)c3n2)oc2ccccc12 [Compound 197]	++ (activity>50% of CFTR amplifier+VX-809 (3 uM) with compound at 10 uM and Compound A at 3 uM)
Cc1ccc(O[C@H](C)c2ccccc2)c2c(C(=O)[O-])cc(-c3nc4ccccn4c3C)nc12.[Na+] [Compound 200]	+ (activity<50% of an CFTR amplifier (Compound A)+VX-809 (3 uM) with compound at 10 uM and Compound A at 3 uM)
Cc1ccc(O[C@@H](C)c2ccccc2)c2c(C(=O)[O-])cc(-c3nc4ccccn4c3C)nc12.[Na+] [Compound 201]	++ (activity>50% of CFTR amplifier+VX-809 (3 uM) with compound at 10 uM and Compound A at 3 uM)
Cc1ccc(O[C@H](C)c2ccccc2)c2c(C(=O)[O-])cc(-c3cn4ccccc4n3)nc12.[Na+] [Compound 202, Sodium 2-[Imidazo[1,2-a]pyridin-2-yl]-8-methyl-5-[(1R)-1-phenylethoxy]quinoline-4-carboxylate]	+ (activity<50% of an CFTR amplifier (Compound A)+VX-809 (3 uM) with compound at 10 uM and Compound A at 3 uM)
Cc1ccc(O[C@@H](C)c2ccccc2)c2c(C(=O)[O-])cc(-c3cn4ccccc4n3)nc12.[Na+] [Compound 203, Sodium 2-[Imidazo[1,2-a]pyridin-2-yl]-8-methyl-5-[(1S)-1-phenylethoxy]quinoline-4-carboxylate]	+ (activity<50% of an CFTR amplifier (Compound A)+VX-809 (3 uM) with compound at 10 uM and Compound A at 3 uM)
Cc1ccc(O[C@H](C)c2ccccc2)c2c(C(=O)[O-])cc(-c3cc4ccccn4n3)nc12.[Na+] [Compound 208]	++ (activity>50% of CFTR amplifier+VX-809 (3 uM) with compound at 10 uM and Compound A at 3 uM)
Cc1ccc(O[C@@H](C)c2ccccc2)c2c(C(=O)[O-])cc(-c3cc4ccccn4n3)nc12.[Na+] [Compound 209]	+ (activity<50% of an CFTR amplifier (Compound A)+VX-809 (3 uM) with compound at 10 uM and Compound A at 3 uM)

SMILES	Activity
Cc1c(-c2cc(C(=O)[O-])c3c(O[C@H](C)c4ccccc4)ccc(C)c3n2)oc2ccccc12.[Na+] [Compound 212]	++ (activity>50% of CFTR amplifier+VX-809 (3 uM) with compound at 10 uM and Compound A at 3 uM)
Cc1c(-c2cc(C(=O)[O-])c3c(O[C@@H](C)c4ccccc4)ccc(C)c3n2)oc2ccccc12.[Na+] [Compound 213]	++ (activity>50% of CFTR amplifier+VX-809 (3 uM) with compound at 10 uM and Compound A at 3 uM)
CCc1ccc(O[C@@H]2CCC[C@H](C)C2)c2c(C(=O)[O-])cc(-c3sc4ccccc4c3C)nc12.[Na+] [Compound 214, Sodium 8-Ethyl-2-(3-methyl-1-benzothiophen-2-yl)-5-[[(1R,3S)-3-methylcyclohexyl]oxy]quinoline-4-carboxylate]	++ (activity>50% of CFTR amplifier+VX-809 (3 uM) with compound at 10 uM and Compound A at 3 uM)
CCc1ccc(O[C@H]2CCC[C@@H](C)C2)c2c(C(=O)[O-])cc(-c3sc4ccccc4c3C)nc12.[Na+] [Compound 215, Sodium 8-Ethyl-2-(3-methyl-1-benzothiophen-2-yl)-5-[[(1S,3R)-3-methylcyclohexyl]oxy]quinoline-4-carboxylate]	++ (activity>50% of CFTR amplifier+VX-809 (3 uM) with compound at 10 uM and Compound A at 3 uM)
CCc1ccc(O[C@H]2CCC[C@H](C)C2)c2c(C(=O)[O-])cc(-c3sc4ccccc4c3C)nc12.[Na+] [Compound 216, Sodium 8-Ethyl-2-(3-methyl-1-benzothiophen-2-yl)-5-[[(1S,3S)-3-methylcyclohexyl]oxy]quinoline-4-carboxylate]	++ (activity>50% of CFTR amplifier+VX-809 (3 uM) with compound at 10 uM and Compound A at 3 uM)
CCc1ccc(O[C@@H]2CCC[C@@H](C)C2)c2c(C(=O)[O-])cc(-c3sc4ccccc4c3C)nc12.[Na+] [Compound 217, Sodium 8-Ethyl-2-(3-methyl-1-benzothiophen-2-yl)-5-[[(1R,3R)-3-methylcyclohexyl]oxy]quinoline-4-carboxylate]	++ (activity>50% of CFTR amplifier+VX-809 (3 uM) with compound at 10 uM and Compound A at 3 uM)
Cc1c(-c2cc(C(=O)[O-])c3c(O[C@@H]4CCC[C@H](C)C4)ccc(C)c3n2)sc2ccccc12.[Na+] [Compound 218, Sodium 8-Methyl-2-(3-methyl-1-benzothiophen-2-yl)-5-[[(1R,3S)-3-methylcyclohexyl]oxy]quinoline-4-carboxylate]	++ (activity>50% of CFTR amplifier+VX-809 (3 uM) with compound at 10 uM and Compound A at 3 uM)
Cc1c(-c2cc(C(=O)[O-])c3c(O[C@H]4CCC[C@@H](C)C4)ccc(C)c3n2)sc2ccccc12.[Na+] [Compound 219, Sodium 8-Methyl-2-(3-methyl-1-benzothiophen-2-yl)-5-[[(1S,3R)-3-methylcyclohexyl]oxy]quinoline-4-carboxylic acid]	++ (activity>50% of CFTR amplifier+VX-809 (3 uM) with compound at 10 uM and Compound A at 3 uM)
Cc1c(-c2cc(C(=O)[O-])c3c(O[C@H]4CCC[C@H](C)C4)ccc(C)c3n2)sc2ccccc12.[Na+] [Compound 220, Sodium 8-Methyl-2-(3-methyl-1-benzothiophen-2-yl)-5-[[(1S,3S)-3-methylcyclohexyl]oxy]quinoline-4-carboxylate]	++ (activity>50% of CFTR amplifier+VX-809 (3 uM) with compound at 10 uM and Compound A at 3 uM)
Cc1ccc([C@H](C)Oc2ccc(C)c3nc(-c4sc5ccccc5c4C)cc(C(=O)[O-])c23)cc1.[Na+] [Compound 227, Sodium 8-Methyl-2-(3-methyl-1-benzothiophen-2-yl)-5-[(1S)-1-(4-methylphenyl)ethoxy]quinoline-4-carboxylate]	++ (activity>50% of CFTR amplifier+VX-809 (3 uM) with compound at 10 uM and Compound A at 3 uM)
Cc1c(-c2cc(C(=O)[O-])c3c(O[C@H](C)c4ccc(S(C)(=O)=O)cc4)ccc(C)c3n2)oc2ccccc12.[Na+] [Compound 229, Sodium 5-[(1R)-1-(4-methanesulfonylphenyl)ethoxy]-8-methyl-2-(3-methyl-1-benzofuran-2-yl)quinoline-4-carboxylate]	++ (activity>50% of CFTR amplifier+VX-809 (3 uM) with compound at 10 uM and Compound A at 3 uM)
Cc1c(-c2cc(C(=O)[O-])c3c(O[C@@H](C)c4ccc(S(C)(=O)=O)cc4)ccc(C)c3n2)oc2ccccc12.[Na+] [Compound 230, Sodium 5-[(1S)-1-(4-methanesulfonylphenyl)ethoxy]-8-methyl-2-(3-methyl-1-benzofuran-2-yl)quinoline-4-carboxylate]	++ (activity>50% of CFTR amplifier+VX-809 (3 uM) with compound at 10 uM and Compound A at 3 uM)
Cc1c(-c2cc(C(=O)[O-])c3c(O[C@H](C)c4ccc(C#N)cc4)ccc(C)c3n2)oc2ccccc12.[Na+] [Compound 233]	++ (activity>50% of CFTR amplifier+VX-809 (3 uM) with compound at 10 uM and Compound A at 3 uM)
Cc1c(-c2cc(C(=O)[O-])c3c(O[C@@H](C)c4ccc(C#N)cc4)ccc(C)c3n2)oc2ccccc12.[Na+] [Compound 234]	++ (activity>50% of CFTR amplifier+VX-809 (3 uM) with compound at 10 uM and Compound A at 3 uM)
Cc1c(-c2cc(C(=O)[O-])c3c(O[C@H](C)c4ccc(OC(F)F)cc4)ccc(C)c3n2)oc2ccccc12.[Na+] [Compound 235]	++ (activity>50% of CFTR amplifier+VX-809 (3 uM) with compound at 10 uM and Compound A at 3 uM)

Source: US11136313B2, “Compounds, compositions, and methods for modulating CFTR” (Proteostasis Therapeutics, Inc., priority 2015, dated 2021)
